Measurements taken from patent US9212205B2, “Nucleic acid binding compounds and methods of use” (University of Rochester, priority 2007, dated 2015).
pKd: −log10 of the molar value.

Key:
[1] = target: (CUG)109 RNA (SEQ ID NO:8)-MBNL1 protein interaction; assay: Enzyme Fragmentation Complementation (EFC) assay of (CUG)109-MBNL1 binding inhibition; assay type: biochemical
Method: Small molecule-mediated inhibition of (CUG)109-MBNL1 binding was determined using an Enzyme Fragmentation Complementation (EFC) assay (Eglen et al., “β-Galactosidase Enzyme Fragment Complementation as A Novel Technology for High Throughput Screening,” Comb. Chem. High Throughput Screening 6:381-387 (2003), which is hereby incorporated by reference in its entirety). Briefly, this was performed by first immobilizing (CUG)109 RNA (SEQ ID NO:8) to a 96 well plate. Next, the immobilized RNA was incubated with recombinant MBNL1 fused to the PL enzyme donor peptide (PL-MBNL1, where “PL” is the commercial “ProLabel” enzyme donor peptide) (DiscoveRx PathHunter ProLabel Detection kit) in the presence of varying concentrations of small molecule inhibitor. The Enzyme Acceptor (EA-β-galactosidase) complement was then added, and the activity of the resulting plate—(CUG)109 bound (PL-MBNL1)-(EA-β-galactosidase) activity was monitored via a chemiluminsecent substrate. Only the EA-β-Gal bound to the PL-MBNL1 is capable of performing the luminescent reaction and, as such, any luminescence correlates to the amount of MBNL1 bound to the (CUG)109 immobilized on the plate. Wells lacking (CUG)109 RNA served as a background measure of non-specific luminescence and were subtracted from each experiment to yield a 0% bound value. Wells containing no small molecule inhibitor added served as 100% bound. […]

[2] = target: HIV-1 frameshift regulatory RNA sequence (Seq I, SEQ ID NO:1); assay: SPR binding of immobilized dimers to RNA; conditions: read-out: dissociation constant (Kd), affinity to the HIV-1 frameshift regulatory RNA sequence
Method: (§1) Graphical analysis of Surface Plasmon Resonance (SPR) data was carried out using DeltaGraph (Rockware Inc.). SPR analysis was conducted on a Reichert SR7000 refractometer using Reichert gold sensor slides that consist of a mixed self-assembled monolayer of thiol-PEG-alcohols and thio-PEG-carboxylic acids (˜9:1; PEG=polyethylene glycol). Amine functionalized small molecules were attached by […]/EDC coupling to the carboxy termini of the surface. After activating the monolayer, molecules were covalently attached through the addition of a 1 mg/mL solution of molecule in a sodium acetate buffer (20 mM, pH=5.5). Unreacted activated esters were quenched through the addition of ethanolamine. […]
To confirm this hypothesis, dissociation constants (Kd) were measured for dimers 1-1 and 1-3 by SPR (FIG. 7A) (Whitney et al., “Templated Ligand Assembly by Using G-quadruplex DNA and Dynamic Covalent Chemistry,” Angew. Chem. Int. Ed. 43:1143-1146 (2004); Lacy et al., “Influence of a Terminal Formamido Group on the Sequence Recognition of DNA by Polyamides,” J. Am. Chem. Soc. 124:2153-2163 (2002); Carrasco et al., “DNA Sequence Recognition by the Indolocarbazole Antitumor Antibiotic AT2433-B1 and Its Diastereoisomer,” Nucleic Acids Res. 30:1774-1781 (2002), each of which is hereby incorporated by reference in its entirety).

[3] = target: alternate RNA stem-loop (Seq III, SEQ ID NO:3); assay: SPR binding specificity, Seq III
Method: as §1, with “ethanolamine. A flow rate of 10 μL/min and injection volumes of 150 μL was used throughout the experiment. RNA solutions were made to be 15.3 nM, 62.5 nM, 250 nM, 500 nM, 1 μM, 2 μM, 10 μM, and 50 μM.” for “ethanolamine.”
(§2) Specificity was assessed by measuring the affinity of 1-1 to three other oligonucleotides: the DNA sequence homologous to I (Seq II, FIG. 7C, SEQ ID NO:2), the alternate RNA stem-loop (Seq III, FIG. 7D, SEQ ID NO:3) (Karan et al., “RNA-Selective Coordination Complexes Identified via Dynamic Combinatorial Chemistry,” J. Am. Chem. Soc. 123:7455-7456 (2001), which is hereby incorporated by reference in its entirety), and an RNA stem loop with an altered loop sequence (Seq IV, FIG. 7E, SEQ ID NO:4).

[4] = target: DNA sequence homologous to I (Seq II, SEQ ID NO:2); assay: SPR binding specificity, Seq II
Method: as §1, with “ethanolamine. A flow rate of 10 μL/min and injection volumes of 150 μL was used throughout the experiment. RNA solutions were made to be 15.3 nM, 62.5 nM, 250 nM, 500 nM, 1 μM, 2 μM, 10 μM, and 50 μM.” for “ethanolamine.”
as §2

Compound: CCc1nc2ccccc2cc1C(=O)N[C@@H](CSSC[C@H](NC(=O)c1cc2ccccc2nc1CC)C(=O)N1CCC[C@H]1C(=O)N[C@@H](Cc1ccccc1)C(=O)NCCCN)C(=O)N1CCC[C@H]1C(=O)N[C@@H](Cc1ccccc1)C(=O)NCCCN [dimer 1-1]
- Ki, inhibition of the (CUG)n MBNL1 interaction [1]: do not show any inhibitory effect
- pKd [2]: 5.72
- affinity for sequence III [3]: no measurable affinity
- affinity for sequence II [4]: no measurable affinity
